Source: publication PMC10831071, “Reaction hijacking inhibition of Plasmodium falciparum asparagine tRNA synthetase” (Nature Communications, 2024)
Several values for one entry are separate records, joined by “and”; a condition that tells them apart may be missing. Equal entries are not always repeated. Where two headings read alike, the source gives them in different places.

What was measured:
P. falciparum (3D7) = test: Activity against P. falciparum 3D7 cultures, 72 h (PfLDH growth inhibition / flow cytometry); format: cell-based, Plasmodium falciparum
Method: Antimalarial activity against P. falciparum 3D7 was tested by TCGLS, Kolkata, India, using the lactate dehydrogenase (PfLDH) growth inhibition assay. […] Plates were shaken to ensure mixing and were placed in the dark at 21 °C for 20 min. […] P. falciparum strain (3D7) was obtained from BEI Resources.
Viability was assessed in the second cycle by flow cytometry, following labeling with 2 μM Syto-61 (Thermo Fisher Scientific)[48],[49]. Viability represents the parasitemia normalized to untreated and “kill” controls that were treated with 2 μM dihydroartemisinin (DHA; Sigma-Aldrich) for 48–72 h. For drug pulse assays, tightly synchronized Cam3.II-rev[50] parasites (1–1.5% parasitemia, 0.2% final hematocrit) were added to the plates and incubated for 6 h. Drugs were removed and the parasitemia assessed in the trophozoite stage of the next cycle.

[1] = tested on: P. falciparum Dd2-B2 clone; test: microbe, parasite or virus in culture; format: cell-based, Plasmodium falciparum
Source text: Wells were monitored daily by smear during the first 7 days to ensure parasite clearance, during which media was changed daily. […] Whole-genome sequencing analysis employed MiSeq data from libraries of 2 × 300 bp paired end reads.

[2] = tested on: DSM265-selected recrudescent Dd2-B2 cultures (G7, F3); test: Sensitivity of DSM265-selected bulk recrudescent cultures; format: cell-based, Plasmodium falciparum; conditions: for IC50: Plasmodium falciparum
PfAsnRS = PfAsnRS (Plasmodium falciparum, UniProt O96198); test: biochemical; conditions: for ATP consumption: PfAsnRS, normalised to 1 (Fig 3C)
HsAsnRS = target: T1, HsAsnRS (Homo sapiens, UniProt O43776); test: ATP consumption assay (Kinase-Glo), HsAsnRS; format: biochemical; conditions: for ATP consumption: HsAsnRS, normalised to 1 (Fig 3C)
T1 construct: HsAsnRS (residues M1–P548) and CDHsAsnRS (residues A98–P548); His6 (N, cleaved yes); made in house; host or cells: E. coli BL21 (DE3), pET11a
T1 sequence (O43776 1-548): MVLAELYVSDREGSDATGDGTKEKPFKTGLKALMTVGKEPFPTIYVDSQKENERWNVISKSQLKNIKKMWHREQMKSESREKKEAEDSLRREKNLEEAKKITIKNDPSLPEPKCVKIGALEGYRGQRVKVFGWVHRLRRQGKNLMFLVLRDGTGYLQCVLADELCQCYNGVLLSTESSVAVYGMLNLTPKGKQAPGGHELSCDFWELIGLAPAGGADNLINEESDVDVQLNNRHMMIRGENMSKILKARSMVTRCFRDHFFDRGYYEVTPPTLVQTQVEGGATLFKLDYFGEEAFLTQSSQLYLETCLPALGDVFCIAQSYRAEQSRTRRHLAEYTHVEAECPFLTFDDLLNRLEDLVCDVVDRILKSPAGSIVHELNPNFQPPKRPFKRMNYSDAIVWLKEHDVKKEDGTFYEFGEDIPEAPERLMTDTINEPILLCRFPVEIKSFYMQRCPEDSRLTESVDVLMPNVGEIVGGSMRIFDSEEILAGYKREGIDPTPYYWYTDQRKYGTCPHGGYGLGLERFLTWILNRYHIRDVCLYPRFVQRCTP

[3] = Plasmodium falciparum, 3D7, 72 h, read-out: Pf3D7 IC50(72 h), 72 h, mean ± SD or duplicate values
[4] = Plasmodium falciparum, 3D7, 72 h, read-out: Pf3D7 IC50 (72h), individual biological repeats (source data of Table 1)
[5] = Plasmodium falciparum, 3D7, read-out: activity against 3D7 cultures, value of earlier manuscript version quoted by reviewer, peer review file
[6] = read-out: Pf3D7 IC50 (72h), individual biological repeats (source data of Table 1)

Chain of PfAsnRS (O96198 entry or part of it): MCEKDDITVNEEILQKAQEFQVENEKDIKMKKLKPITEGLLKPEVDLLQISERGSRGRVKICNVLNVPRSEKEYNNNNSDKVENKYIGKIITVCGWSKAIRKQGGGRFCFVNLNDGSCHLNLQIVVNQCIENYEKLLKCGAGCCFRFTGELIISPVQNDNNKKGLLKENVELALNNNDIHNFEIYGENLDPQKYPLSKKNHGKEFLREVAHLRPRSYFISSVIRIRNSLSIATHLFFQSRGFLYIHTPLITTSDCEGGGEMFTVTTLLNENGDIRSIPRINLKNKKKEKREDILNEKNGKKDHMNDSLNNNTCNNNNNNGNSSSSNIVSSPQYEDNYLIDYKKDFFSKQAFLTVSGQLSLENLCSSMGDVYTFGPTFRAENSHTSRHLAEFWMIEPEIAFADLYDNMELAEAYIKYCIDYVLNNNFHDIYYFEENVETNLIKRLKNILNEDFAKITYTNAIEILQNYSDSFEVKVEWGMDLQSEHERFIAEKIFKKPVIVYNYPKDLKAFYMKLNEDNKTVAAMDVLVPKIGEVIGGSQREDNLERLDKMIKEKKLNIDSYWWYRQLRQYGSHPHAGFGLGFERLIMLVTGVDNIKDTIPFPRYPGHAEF

Nc1ncnc2cc(-c3cccc(COS(N)(=O)=O)c3)sc12 [OSM-LO-81]
IC50 (P. falciparum (3D7); [3]): 0.93 ± 0.24 µM | IC50 (P. falciparum (3D7); [4]): 1.1 µM | IC50 (P. falciparum (3D7); [5]): 0.9 µM | IC50 (P. falciparum (3D7); [6]): 1.33 µM and 0.74 µM and 0.761 µM and 0.909 µM and 0.753 µM

NS(=O)(=O)c1cccc(-c2ccc3c(=O)[nH]cnc3c2)c1 [OSM-LO-87]
antimalarial potency (in words) (P. falciparum (3D7); 3D7 cultures): no antimalarial potency | IC50 (P. falciparum (3D7); [3]): > 25 µM | IC50 (P. falciparum (3D7); [4]): > 25 µM | IC50 (P. falciparum (3D7); [6]): > 25 µM

CNS(=O)(=O)c1cccc(-c2cc3ncnc(N)c3s2)c1 [OSM-S-488]
IC50 (P. falciparum (3D7); [4]): 12.7 µM | IC50 (P. falciparum (3D7); [6]): 13.8 µM

Cc1cc(Nc2ccc(S(F)(F)(F)(F)F)cc2)n2nc(C(C)(F)F)nc2n1 [DSM265]
IC50 ([1]; Plasmodium falciparum, DD2, read-out: Mean IC50 + SEM (N)): 22.6 nM | Minimum Inoculum for Resistance (MIR) ([1]; reference selection at 5 × IC50 (58 nM), 2 × 10^5 parasites per well, 96 wells): 1.4 × 10^6 parasites | recrudescent wells ([1]; reference selection at 5 × IC50 (58 nM), 96-well plate): 14 and 14/96 | Fold Shift ([2]; DSM265_F3 vs Dd2-B2 parent): 2.5 | Fold Shift ([2]; DSM265_G7 vs Dd2-B2 parent): 3.1 | IC50 ([2]; read-out: Mean IC50 + SEM (N), recrudescent culture DSM265_F3): 56.6 nM | IC50 ([2]; read-out: Mean IC50 + SEM (N), recrudescent culture DSM265_G7): 71 nM

NS(=O)(=O)c1cccc(-c2cc3ncnc(N4CCN(Cc5ccc(F)cc5)CC4)c3s2)c1 [OSM-S-137]
IC50 (P. falciparum (3D7); [3]): 4.4 ± 3 µM | IC50 (P. falciparum (3D7); [6]): 2.65 µM and 1.2 µM and 6.07 µM and 7.69 µM

Nc1ncnc2cc(-c3cccc(OS(N)(=O)=O)c3)sc12 [OSM-LO-80]
IC50 (P. falciparum (3D7); [3]): 5.1 ± 3.2 µM | IC50 (P. falciparum (3D7); [5]): 2.1 µM | IC50 (P. falciparum (3D7); [6]): 1.72 µM and 1.7 µM and 8 µM and 8.04 µM and 8.28 µM and 7.95 µM and 2.49 µM and 2.41 µM | IC50 (PfAsnRS): > 100 µM | ATP consumption (PfAsnRS; 0.1 μM OSM-LO-80, 0.1 µM): 0.9991 | ATP consumption (PfAsnRS; 1 μM OSM-LO-80, 1 µM): 0.918 and 0.9991 | ATP consumption (PfAsnRS; 3 μM OSM-LO-80, 3 µM): 0.8254 and 0.8439 | ATP consumption (PfAsnRS; 10 μM OSM-LO-80, 10 µM): 0.7121 and 0.7363 | ATP consumption (PfAsnRS; 30 μM OSM-LO-80, 30 µM): 0.597 and 0.5984 | ATP consumption (PfAsnRS; 100 μM OSM-LO-80, 100 µM): 0.5737 and 0.5517 | ATP consumption (HsAsnRS; 0.1 μM OSM-LO-80): 0.9993 and 0.9657 and 0.9905 | IC50 (HsAsnRS; 0.2 μM HsAsnRS, E. coli tRNA present, 37 °C, 1 h (Fig. 3C, D)): > 100 µM | ATP consumption (HsAsnRS; 1 μM OSM-LO-80): 1 and 0.9892 and 0.9767 | ATP consumption (HsAsnRS; 3 μM OSM-LO-80): 0.9847 and 1 and 0.9888 | ATP consumption (HsAsnRS; 10 μM OSM-LO-80): 1.009 and 0.9926 and 0.9928 | ATP consumption (HsAsnRS; 30 μM OSM-LO-80): 0.9786 and 0.9717 and 1 | ATP consumption (HsAsnRS; 100 μM OSM-LO-80): 0.9628 and 0.9785 and 0.9921

NS(=O)(=O)c1cccc(-c2cc3nc[nH]c(=O)c3s2)c1 [OSM-LO-88]
IC50 (P. falciparum (3D7); [3]): 18.7 ± 1.8 µM | IC50 (P. falciparum (3D7); [4]): 19.2 µM | IC50 (P. falciparum (3D7); [6]): 21.9 µM and 18.6 µM and 17.5 µM and 16.5 µM

Cc1ccc(S(N)(=O)=O)cc1-c1cc2ncnc(N)c2s1 [OSM-E-32]
IC50 (P. falciparum (3D7); [4]): 8.33 µM
